Data: US4058665A, “Novel 3,15-dilower alkyl PGE2 derivatives” (Yamanouchi Pharmaceutical Co., Ltd., priority 1975, dated 1977)

Experiments:
male Sprague-Dawly rats = test: antiulcer activity, pylorus-ligated fasted rats, samples given by gastric tube, stomach inspected for ulcers 21 hours later; type: in vivo, Sprague-Dawly rat; conditions: for ED50: Rattus norvegicus, po, pylorus-ligated rats, 21 hours, figures in parenthesis indicate confidence limit; for b)/a) (ED50 diarrhea / ED50 antiulcer): ratio of diarrhea ED50 to antiulcer ED50, p.o., rats
Method: Each of ten male Sprague-Dawly rate, 12 weeks old, in one group was isolated in a cage with a large mesh wire net at the bottom during experimental period and prevented from coprophagia. During this period the animals were completely fasted for 48 hours and water was provided only for 32 hours from the beginning. The animal was anesthetized with ether, the pylorus was ligated through a short midline incision. The samples were administered with a gastric tube immediately after the ligation. The animals were sacrificed 21 hours later with chloroform and their abdomens were widely opened to take out the stomach. The stomach was opened for inspection of ulcers.

[1] = diarrhea activity, fasted rats, samples given by gastric tube, occurrence of diarrhea observed in the following 24 hours; set-up: species or system Sprague-Dawly rat; conditions: rat, in vivo, po, observed 24 hours, figures in parenthesis indicate confidence limit, read-out: ED50 diarrhea activity
Method: Each of five male Sprague-Dawly rats, 12 weeks old, in one group was fasted for 24 hours.

[2] = in vivo; cited from earlier work
[3] = Prostaglandins, 5, (5) 455-463 (1974); cited from earlier work

Row | SMILES | ED50 (male Sprague-Dawly rats) [mg/kg] | b)/a) (ED50 diarrhea / ED50 antiulcer) (male Sprague-Dawly rats) | TD50 at 24 h [1] [mg/kg] | diarrhea as a side effect, in words [2] | anti-ulcer activity, in words [3]
1 | CCCCC[C@](C)(O)/C=C/[C@H]1[C@H](O)CC(=O)[C@@H]1C/C=C\CCCC(=O)OC [B, 11α, 15(S)-dihydroxy-15-methyl-9-oxo-5(cis),13(trans)-prostadienoic acid methyl ester] | 0.06 | 0.8 | 0.047 | – | –
2 | CCCCC[C@@](C)(O)/C=C/[C@H]1[C@H](O)CC(=O)[C@@H]1C/C=C\CC(C)CC(=O)OC (stereo partly drawn) [Compound C, 11α, 15(R)-dihydroxy-3,15-dimethyl-9-oxo-5(cis), 13(trans)-prostadienoic acid methyl ester] | 0.2 | 6.0 | 1.2 | – | –
3 | CCCCC[C@@](C)(O)/C=C/[C@H]1[C@H](O)CC(=O)[C@@H]1C/C=C\CCCC(=O)OC [A, 11α, 15(R)-dihydroxy-15-methyl-9-oxo-5(cis),13(trans)-prostadienoic acid methyl ester] | 0.098 | 1.2 | 0.12 | very severe diarrhea | strong anti-ulcer activity
